{"source": "patent US20090130070A1", "about": "“METHOD OF TREATMENT” (The University of Queensland, priority 2004, published 2009)", "system": "Human epidermal keratinocytes (HaCaT cells)", "assay": "\"scrape\" in vitro wound healing model (wound closure of a scraped confluent monolayer)", "type": "cell-based", "settings": "for wound width, day 1: day 1 (24 hours); for wound width, day 2: day 2 (48 hours)", "procedure": "The “scrape” in vitro wound healing model has been previously presented in the literature (Li, F. et al., 2000, Exp Cell Res., 258(2): 245-253; Firth J. D. et al., 2004, J. Invest. Dermatol., 122(1): 222-231). In this model a scrape across a confluent monolayer of cells is used to simulate a wound and the effect of agents added to serum free media is tested on the rate of closure of the gap.\nHuman epidermal keratinocytes (HaCaT cells) were plated at a density of 1×10^5 cells/well into Nunc 6 well plates in Dulbecco's Modified Eagle Medium (DMEM) containing 10% fetal bovine serum (FBS) benzyl penicillin (100 IU/ml), streptomycin […] confluence (2 days) monolayers were “wounded” with a 1 ml pipette tip (0.5 mm width) by scraping the tip across the centre of the well. The wells were then washed 5 times with DMEM. One ml of either DMEM with 10% FBS, DMEM or DMEM with: 3, 6, 12 or 24 mgs/ml bovine fetuin A (Sigma), 6.25, 12.5, 25 or 50 μg/ml peptide TGF peptide antagonist (Corresponding to residues 41-65 of TGFβ-1-3:—Huang S. S. et al., 1997, Journal of Biological Chemistry, 272(43):27155-27159) and 2.1, 4.2, 8.4 and 16.8 mg/ml bovine thyroglobulin was added to each well (2 replicates per plate, 4 plates). These concentrations were calculated to have equivalent antagonistic effect on the binding of TGFβ-1 to its receptor for each of the compounds. All DMEM solutions used contained benzyl penicillin (100 IU/ml), streptomycin ([…]) and fungizone (250 mg/ml). A mark was placed on the base of each well at right angles to the “wound” and the wound was photographed at the intersection of the mark and wound with a Nikon EOS 300 digital camera fitted to a JenaMed (Ziess Jena) inverted microscope (50×). Images were taken at the same positions 24 and 48 hours after addition of the treatment media. Digital images were analysed with Image Pro (Media Cybernetics) image analysis software and an image of a Nikon stage micrometer was used for calibration of length measurements. Results were summarized as the wound width after 24 and 48 hours.", "key": {"[1]": {"settings": "6.25 μg/ml TGF peptide antagonist in DMEM"}, "[2]": {"settings": "12.5 μg/ml TGF peptide antagonist in DMEM"}, "[3]": {"settings": "25 μg/ml TGF peptide antagonist in DMEM"}, "[4]": {"settings": "50 μg/ml TGF peptide antagonist in DMEM"}, "[5]": {"settings": "2.1 mg/ml bovine thyroglobulin in DMEM"}, "[6]": {"settings": "4.2 mg/ml bovine thyroglobulin in DMEM"}, "[7]": {"settings": "8.4 mg/ml bovine thyroglobulin in DMEM"}, "[8]": {"settings": "16.8 mg/ml bovine thyroglobulin in DMEM"}}}
{"substance": "TGFB-R inhibitor: peptide TGF peptide antagonist corresponding to residues 41-65 of TGFβ-1-3 (Huang S. S. et al., 1997) (ANFCLGPCPYIWSLDTQYSKVLALY; Transforming growth factor beta-1; UniProt P01137 319-343, looked up, fragment)", "values": [{"measurement": "wound width, day 0", "setting": "[1]", "result": 0.6779}, {"measurement": "wound width, day 1", "setting": "[1]", "result": 0.5473}, {"measurement": "wound width, day 2", "setting": "[1]", "result": 0.4866}, {"measurement": "wound width, day 0", "setting": "[2]", "result": 0.6751}, {"measurement": "wound width, day 1", "setting": "[2]", "result": 0.5515}, {"measurement": "wound width, day 2", "setting": "[2]", "result": 0.4839}, {"measurement": "wound width, day 0", "setting": "[3]", "result": 0.6643}, {"measurement": "wound width, day 1", "setting": "[3]", "result": 0.5341}, {"measurement": "wound width, day 2", "setting": "[3]", "result": 0.4688}, {"measurement": "wound width, day 0", "setting": "[4]", "result": 0.6371}, {"measurement": "wound width, day 1", "setting": "[4]", "result": 0.554}, {"measurement": "wound width, day 2", "setting": "[4]", "result": 0.498}]}
{"substance": "Thyroglobulin: bovine thyroglobulin, comparator that binds members of the TGF-β superfamily", "values": [{"measurement": "wound width, day 0", "setting": "[5]", "result": 0.6587}, {"measurement": "wound width, day 1", "setting": "[5]", "result": 0.413}, {"measurement": "wound width, day 2", "setting": "[5]", "result": 0.4941}, {"measurement": "wound width, day 0", "setting": "[6]", "result": 0.6428}, {"measurement": "wound width, day 1", "setting": "[6]", "result": 0.5772}, {"measurement": "wound width, day 2", "setting": "[6]", "result": 0.5393}, {"measurement": "wound width, day 0", "setting": "[7]", "result": 0.6669}, {"measurement": "wound width, day 1", "setting": "[7]", "result": 0.5742}, {"measurement": "wound width, day 2", "setting": "[7]", "result": 0.5909}, {"measurement": "wound width, day 0", "setting": "[8]", "result": 0.6152}, {"measurement": "wound width, day 1", "setting": "[8]", "result": 0.5981}, {"measurement": "wound width, day 2", "setting": "[8]", "result": 0.6132}]}
